# In US20210179598A1, “SELECTIVE JAK2 INHIBITOR AND APPLICATION THEREOF” (EAST CHINA UNIVERSITY OF SCIENCE AND TECHNOLOGY, priority 2018, published 2021):
# Where two headings read alike, the source gives them in different places.
# Tests used:
# JAK2 = JAK2 (Homo sapiens, UniProt O60674); test: JAK2 kinase activity test at molecular level (Z'-LYTE FRET); assay type: biochemical
# Method: JAK2 can catalyze the transfer of a phosphate group of adenosine triphosphate (ATP) to a polypeptide substrate, and the polypeptide substrate is labeled with two fluorescent groups, coumarin and fluorescein. […] Therefore, the inhibition rates of different compounds can be calculated by measuring the ratio of enzyme-catalyzed substrate phosphorylation percentages.
# 10 μL reaction system, 2.5 μL test compound, 5 μL kinase/peptide substrate mixture and 2.5 μL ATP solution were added into a 384-well plate, shaken for 30 s, and incubated at room temperature for 1 hour. 5 μL of proteolytic enzyme and 15 μL of the reaction system were added and shaken for 30 s and incubated at room temperature for 1 h. 5 μL of stop reagent was added, and the reaction system with a total volume of 20 μL was shaken for 30 seconds. A microplate reader was used to detect the fluorescence signal. […] The inhibition rates of the compound at 7 concentration gradients were determined, and the IC50 value for each compound was calculated by fitting curve with Origin 8.0.
# (§1) NOTE: HEL, SET-2, H3122 cells were purchased from ATCC (American type culture collection), Z′-LYTETM kinase assay platform was purchased from Invitrogen, HTRF KinEASETM-TK was purchased from Cisbio, and Cell Counting Kit-8 was purchased from Beyotime.
# ALK = ALK (Homo sapiens, UniProt Q9UM73); test: ALK kinase IC50 test (HTRF); assay type: biochemical; details: Table 2
# ALK, sequence (Q9UM73 19-1620, species assumed): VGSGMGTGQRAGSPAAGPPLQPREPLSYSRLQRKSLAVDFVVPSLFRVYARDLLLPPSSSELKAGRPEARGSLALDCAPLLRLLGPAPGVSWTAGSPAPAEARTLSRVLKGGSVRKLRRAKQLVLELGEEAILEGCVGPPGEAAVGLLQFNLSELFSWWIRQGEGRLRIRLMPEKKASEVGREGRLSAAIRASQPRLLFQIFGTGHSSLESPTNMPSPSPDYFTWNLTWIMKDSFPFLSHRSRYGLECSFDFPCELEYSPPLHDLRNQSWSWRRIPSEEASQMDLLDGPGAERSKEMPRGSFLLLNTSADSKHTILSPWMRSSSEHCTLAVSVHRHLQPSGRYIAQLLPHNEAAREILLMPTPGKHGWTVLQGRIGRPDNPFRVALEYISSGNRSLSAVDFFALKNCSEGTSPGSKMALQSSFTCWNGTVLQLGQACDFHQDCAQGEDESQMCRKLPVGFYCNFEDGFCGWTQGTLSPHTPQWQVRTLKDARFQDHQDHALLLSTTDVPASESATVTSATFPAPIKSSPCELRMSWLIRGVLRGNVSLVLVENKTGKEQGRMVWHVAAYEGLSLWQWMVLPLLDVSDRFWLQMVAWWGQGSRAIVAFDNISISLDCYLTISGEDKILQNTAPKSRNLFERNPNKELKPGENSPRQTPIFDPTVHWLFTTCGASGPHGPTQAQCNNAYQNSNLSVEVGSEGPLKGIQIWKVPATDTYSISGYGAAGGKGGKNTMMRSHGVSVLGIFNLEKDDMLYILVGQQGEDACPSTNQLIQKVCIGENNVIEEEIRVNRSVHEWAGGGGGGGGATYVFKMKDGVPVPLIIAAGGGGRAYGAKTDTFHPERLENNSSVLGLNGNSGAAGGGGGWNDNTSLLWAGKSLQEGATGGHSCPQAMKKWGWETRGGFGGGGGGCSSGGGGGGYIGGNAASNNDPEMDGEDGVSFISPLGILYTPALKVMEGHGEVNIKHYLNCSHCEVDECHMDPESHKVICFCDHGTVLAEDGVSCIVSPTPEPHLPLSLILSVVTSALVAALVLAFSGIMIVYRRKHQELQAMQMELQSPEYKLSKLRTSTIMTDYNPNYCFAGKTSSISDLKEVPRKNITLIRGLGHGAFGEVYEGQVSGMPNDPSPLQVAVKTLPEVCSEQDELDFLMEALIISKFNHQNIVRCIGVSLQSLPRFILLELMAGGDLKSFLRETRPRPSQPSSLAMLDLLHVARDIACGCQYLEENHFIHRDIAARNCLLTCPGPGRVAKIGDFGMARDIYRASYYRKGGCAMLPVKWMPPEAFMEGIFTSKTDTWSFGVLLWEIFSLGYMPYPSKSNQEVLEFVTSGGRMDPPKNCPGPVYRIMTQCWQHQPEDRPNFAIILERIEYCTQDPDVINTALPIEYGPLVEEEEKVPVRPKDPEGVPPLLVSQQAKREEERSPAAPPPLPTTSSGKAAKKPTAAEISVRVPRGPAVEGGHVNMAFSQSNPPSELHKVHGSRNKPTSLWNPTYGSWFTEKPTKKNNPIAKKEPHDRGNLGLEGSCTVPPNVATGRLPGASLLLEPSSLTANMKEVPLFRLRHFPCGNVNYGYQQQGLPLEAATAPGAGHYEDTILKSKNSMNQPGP
# Description: According to HTRF method, the peptide substrate was labeled with a biotin, which can specifically bind to XL665-labeled streptavidin. When the kinase adds a phosphate group to the polypeptide substrate in the first step, its Eu-labeled specific phosphorylation antibody can recognize and bind to it. In this way, in the second step of detection, a complex of XL665-labeled streptavidin, phosphorylated peptide substrate and Eu-labeled phosphorylation antibody can be formed. Since the distance between XL665 and Eu is short, FRET can be formed. On the other hand, Eu has a relatively long fluorescence half-life and can be applied to time-resolved fluorescence detection.
# 10 μL of reaction system, 4 μL test compound, 2 μL kinase, 2 μL biotin-labeled substrate and 2 μL ATP, was added into a 384-well plate, shaken for 30 s, and incubated at room temperature for 1 hour. 5 μL of Eu-labeled phosphorylation site-specific antibody and 5 μL of XL665-labeled streptavidin were added. The reaction system was shaken for 30 s, and incubated at room temperature for 1 hour. A microplate reader was used to detect the fluorescence signal. The inhibition rates of the compounds under 8 concentration gradients were determined, and the IC50 value of each compound was calculated by fitting curve with Origin 8.0. […] Each experiment was performed in triplicate.
# as §1
# SET 2 (JAK2 V617F) cells = test: CCK-8 cell proliferation detection, SET2 cells; assay type: cell-based; details: Homo sapiens, SET-2; Table 2; CCK-8, 72 hrs
# Description: (§2) WST-8 (chemical name: 2-(2-methoxy-4-nitrophenyl)-3-(4-nitrophenyl)-5-(2,4-disulfo benzene)-2H-tetrazolium monosodium), which is reduced to a highly water-soluble yellow formazan product (Formazan dye) by the dehydrogenase in cells under the action of the electron carrier dimethyl 1-methoxy-5-methylphenazinium sulfate (1-Methoxy PMS). The amount of the produced formazan is proportional to the number of living cells. Therefore, the survival rate of cells can be calculated indirectly by measuring the absorbance at 450 nm. The half inhibition rate of the compound on the proliferation of H3122, SET2, HEL cells can be determined by the CCK-8 method.
# (§3) RPIM medium containing 10% FBS was used to culture cells (100 μL per well), and 3500 cells were inoculated into a 96-well plate, and placed in a 37° C., 5% CO2 incubator for 24 h, until 50%-70% of the cell confluence was achieved. Drugs with different concentration gradients were added respectively, and incubated for another 72 hrs. […] And finally the absorption value of each well was measured at 450 nm.
# as §1
# HEL (JAK2 V617F) cells = test: CCK-8 cell proliferation detection, HEL cells; assay type: cell-based; details: Homo sapiens, Table 2, CCK-8, 72 hrs
# Description: as §2, §3, §1
# H3122 cells = test: CCK-8 cell proliferation detection, H3122 cells; assay type: cell-based; details: Homo sapiens, NCI-H3122; Table 2; CCK-8, 72 hrs
# Description: as §2, §3, §1
# [1] = Table 1, read-out: JAK2 kinase activity IC50
# JAK2, sequence (O60674 whole entry): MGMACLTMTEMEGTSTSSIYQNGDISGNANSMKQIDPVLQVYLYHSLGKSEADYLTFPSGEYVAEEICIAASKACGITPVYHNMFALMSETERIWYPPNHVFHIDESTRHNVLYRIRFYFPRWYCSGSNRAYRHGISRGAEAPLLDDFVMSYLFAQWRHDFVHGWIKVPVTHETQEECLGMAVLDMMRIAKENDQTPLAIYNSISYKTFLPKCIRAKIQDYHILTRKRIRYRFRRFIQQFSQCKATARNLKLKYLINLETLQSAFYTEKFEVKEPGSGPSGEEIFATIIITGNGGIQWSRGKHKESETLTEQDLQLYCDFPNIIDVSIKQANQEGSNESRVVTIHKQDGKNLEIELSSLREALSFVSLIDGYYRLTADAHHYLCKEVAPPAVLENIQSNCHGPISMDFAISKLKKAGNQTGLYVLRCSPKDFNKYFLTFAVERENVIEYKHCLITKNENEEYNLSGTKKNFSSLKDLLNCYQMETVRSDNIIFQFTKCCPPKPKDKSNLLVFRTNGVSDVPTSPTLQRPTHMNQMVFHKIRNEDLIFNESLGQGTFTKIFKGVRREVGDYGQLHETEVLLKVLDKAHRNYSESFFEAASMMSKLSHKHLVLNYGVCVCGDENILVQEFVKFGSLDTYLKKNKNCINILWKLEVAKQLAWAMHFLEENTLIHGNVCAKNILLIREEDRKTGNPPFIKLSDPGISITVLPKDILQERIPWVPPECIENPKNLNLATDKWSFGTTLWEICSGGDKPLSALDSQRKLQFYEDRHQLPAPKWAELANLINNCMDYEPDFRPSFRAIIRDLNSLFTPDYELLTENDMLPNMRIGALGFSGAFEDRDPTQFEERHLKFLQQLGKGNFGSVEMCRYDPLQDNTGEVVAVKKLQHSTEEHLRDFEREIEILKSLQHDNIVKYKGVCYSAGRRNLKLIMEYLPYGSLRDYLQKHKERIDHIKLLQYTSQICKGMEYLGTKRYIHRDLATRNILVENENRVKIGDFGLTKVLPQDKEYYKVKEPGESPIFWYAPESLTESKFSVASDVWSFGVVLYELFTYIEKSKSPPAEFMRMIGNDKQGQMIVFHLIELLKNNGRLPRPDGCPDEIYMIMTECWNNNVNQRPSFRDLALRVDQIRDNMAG
Compound,IC50 (JAK2; [1]) [µM],IC50 (ALK) [µM],IC50 (SET 2 (JAK2 V617F) cells) [µM],IC50 (HEL (JAK2 V617F) cells) [µM],IC50 (H3122 cells) [µM],melting point [°C],"IC50 (JAK2; Table 2, read-out: JAK2 IC50) [µM]"
"C[C@@H](Oc1cc(-c2ccc(N3CCNCC3)nc2)cnc1N)c1c(Cl)ccc(F)c1Cl [WWQ-191, (R)-5-[1-(2,6-dichloro-3-fluorophenyl)ethoxy]-6′-piperazin-[3,3′-dipyridine]-6-amine]",0.804 ± 0.009,3.44,3.22,30.1,1.17 ± 0.093,197.8 to 198.5,–
"CC(Oc1cc(-c2cnn(C3CCNCC3)c2)cnc1N)C1CCCCC1 (centres unmarked) [WWQ-197, 4-{3-[1-cyclohexaneethoxy]-2-aminopyridine}pyrazol-1-piperidine]",3.4 ± 0.431,> 10,7.02,12.9,20.7 ± 0.394,192.2 to 193.4,3.4 ± 0.431
"COc1ccc(F)c(Cl)c1C(C)Oc1cc(-c2cnn(C3CCNCC3)c2)cnc1N (centres unmarked) [WWQ-175, 4-{3-[1-(2-chloro-3-fluoro-6-methoxyphenyl)ethoxy]-2-aminopyridine}pyrazol-1-piperidine]",0.0265 ± 0.0265,0.423,0.916,11.3,4.83 ± 0.082,189.8 to 191.3,–
"CC(Oc1cc(-c2cn[nH]c2)cnc1N)c1cc(F)ccc1Cl (centres unmarked) [WWQ-1093-81, 3-(1-(2-chloro-5-fluorophenyl)ethoxy)-2-amino-5-pyrazolepyridine]",0.016 ± 0.0001,0.334,5.55,4.7,2.55 ± 0.16,183.8 to 184.6,0.016 ± 0.0001
CC(Oc1cc(-c2ccccc2)cnc1N)c1c(Cl)ccc(F)c1Cl (centres unmarked) [WWQ-1093-83],–,> 10,11.6,11.3,6.06 ± 0.081,160.4 to 161.4,> 10
"C[C@@H](Nc1cc(-c2cnn(C3CCNCC3)c2)cnc1N)c1c(Cl)ccc(F)c1Cl [WWQ-1093-73, 4-{3-[1-(2,6-dichloro-3-fluorophenyl)ethylamino]-2-aminopyridine}pyrazole-1-piperidine]",0.126 ± 0.0053,3.45,2.2,13.4,4.366 ± 0.005,191.5 to 191.7,–
COc1ccc(F)cc1C(C)Oc1cc(-c2cnn(C3CCNCC3)c2)cnc1N (centres unmarked) [WWQ-1093-71],0.003 ± 0.0001,1.33,0.616,9.97,< 0.5,191.6 to 192.3,0.003 ± 0.0001
CC(Oc1cc(-c2ccc(N3CCNCC3)cc2)cnc1N)c1cc(F)ccc1Cl (centres unmarked) [WWQ-1093-85],0.037 ± 0.003,0.498,8.26,35.8,1.14 ± 0.012,191.1 to 193.7,0.037 ± 0.003
"CC(Oc1cc(-c2ccccc2)cnc1N)c1cc(F)ccc1Cl (centres unmarked) [WWQ-1093-75, 3-(1-(2-chloro-5-fluorophenyl)ethoxy)-2-amino-5-phenylpyridine]",0.461 ± 0.002,> 10,33.2,24.5,14.4 ± 4.21,199 to 199.8,0.461 ± 0.002
C[C@@H](Oc1cc(-c2cnn(C3CCOCC3)c2)cnc1N)c1c(Cl)ccc(F)c1Cl [WWQ-1093-27],0.0647 ± 0.0004,0.855,1.68,8.05,7.18 ± 0.838,188.1 to 190.4,–
CC(Oc1cc(-c2cccc(N3CCNCC3)c2)cnc1N)c1cc(F)ccc1Cl (centres unmarked) [WWQ-1093-89],0.027 ± 0.002,0.334,2.26,8.43,< 0.5,190.8 to 191.6,0.027 ± 0.002
"C[C@@H](Oc1cc(-c2cccnc2)cnc1N)c1c(Cl)ccc(F)c1Cl [WWQ-189, (R)-5-[1-(2,6-dichloro-3-fluorophenyl)ethoxy]-[3,3′-dipyridine]-6-amine]",3.05 ± 0.204,> 10,11.1,13.2,6.32 ± 0.128,158.8 to 159.8,–
"C[C@@H](Oc1cc(-c2cncc(N3CCNCC3)c2)cnc1N)c1c(Cl)ccc(F)c1Cl [WWQ-1093-23, (R)-5-[1-(2,6-dichloro-3-fluorophenyl)ethoxy]-5′-piperazine-[3,3′-dipyridine]-6-amine]",0.119 ± 0.0082,2.44,2.89,10.4,1.54 ± 0.034,189.7 to 190.6,–
"C[C@@H](Oc1cc(-c2cnn(C3CCNCC3)c2)cnc1N)c1ccccc1 [WWQ-1093-25, 4-[3-(1-phenylpropoxy)-2-aminopyridine]pyrazole-1-piperidine]",0.215 ± 0.0124,5.43,4.61,13.7,3.52 ± 0.102,194.2 to 195,–
CC(Oc1cc(-c2nccs2)cnc1N)c1cc(F)ccc1Cl (centres unmarked) [XFL-169],–,> 10,8.17,15.9,> 100,–,1.12 ± 0.014
CC(Oc1cc(-n2cccn2)cnc1N)c1cc(F)ccc1Cl (centres unmarked) [XFL-179],–,7.78,> 50,> 50,> 100,–,0.931 ± 0.032
CC(Oc1cc(-c2ccc(C3CCNCC3)cc2)cnc1N)c1cc(F)ccc1Cl (centres unmarked) [WWQ-1093-87],0.048 ± 0.008,0.545,9.7,35.4,> 10,189.8 to 191,0.048 ± 0.008
CC(Oc1cc(-c2cccc(C3CCNCC3)c2)cnc1N)c1cc(F)ccc1Cl (centres unmarked) [WWQ-1093-91],0.035 ± 0.001,1.25,2.36,8.77,0.956,192.1 to 193.4,0.035 ± 0.001
CC(Oc1cc(Nc2ccccn2)cnc1N)c1cc(F)ccc1Cl (centres unmarked) [MXY-175],–,> 10,11,2.23,> 100,–,1.1 ± 0.081
